Data taken from ChEMBL document CHEMBL3045726, “Fungicidal Activity of Pyrazolylpyrimidines” (1990).
In brackets after ≈: the same amount, converted by molar mass.

What was measured:
Assay type in all cases: functional
Pyricularia oryzae [1] = assay: Fungicidal activity against Magnaporthe oryzae by agar dilution method
Pyricularia oryzae [2] = assay: Fungicidal activity against Magnaporthe oryzae in rice seedlings assessed as control of rice blast at 500 ppm by curative foliar treatment
Pyricularia oryzae [3] = assay: Fungicidal activity against Magnaporthe oryzae in rice seedlings assessed as control of rice blast at 500 ppm by preventive foliar treatment
Nakataea oryzae = assay: Fungicidal activity against Magnaporthe salvinii by agar dilution method
Podosphaera fuliginea [4] = assay: Fungicidal activity against Podosphaera fuliginea in cucumber assessed as control of cucumber powdery mildew at 125 ppm measured after 10 days of inoculation
Podosphaera fuliginea [5] = assay: Fungicidal activity against Podosphaera fuliginea in cucumber assessed as control of cucumber powdery mildew at 62.5 ppm measured after 10 days of inoculation
Podosphaera fuliginea [6] = assay: Fungicidal activity against Podosphaera fuliginea in cucumber assessed as control of cucumber powdery mildew at 62.5 ppm measured after 7 days of inoculation
Podosphaera fuliginea [7] = assay: Fungicidal activity against Podosphaera fuliginea in cucumber assessed as control of cucumber powdery mildew at 125 ppm measured after 7 days of inoculation

| SMILES | MIC (Pyricularia oryzae [1]) [µg/mL] | Activity (Pyricularia oryzae [2]) [%] | Activity (Pyricularia oryzae [3]) [%] | MIC (Nakataea oryzae) [µg/mL] | Activity (Podosphaera fuliginea [4]) [%] | Activity (Podosphaera fuliginea [5]) [%] | Activity (Podosphaera fuliginea [6]) [%] | Activity (Podosphaera fuliginea [7]) [%] |
| --- | --- | --- | --- | --- | --- | --- | --- | --- |
| CCNc1nc(NCC)nc(-n2nc(C)cc2C)n1 | 50 (≈ 191 µM) | 81 | 100 | 25 (≈ 95.7 µM) |  |  |  |  |
| Cc1cc(C)n(C2=NS(=O)(=O)c3ccccc32)n1 | > 100 | 0 | 31 | > 100 |  |  |  |  |
| Cc1cc(C)n(-c2nc3ccccc3s2)n1 | > 100 | 31 | 40 | > 100 |  |  |  |  |
| Cc1cc(C)n(-c2nc3ccccc3c(=O)[nH]2)n1 | 0.78 (≈ 3.25 µM) | 85 | 40 |  |  |  |  |  |
| Cc1cc(C)n(-c2ccc(O)nn2)n1 | 100 (≈ 526 µM) | 0 | 29 | > 100 |  |  |  |  |
| Cc1cc(C)n(-c2ccc(Cl)nn2)n1 | > 100 | 31 | 31 | > 100 |  |  |  |  |
| Cc1cc(C)n(-c2ncncn2)n1 | > 100 | 50 | 59 | > 100 |  |  |  |  |
| Cc1cc(C)n(-c2nc(O)nc(O)n2)n1 | > 100 | 31 |  | > 100 |  |  |  |  |
| Cc1cc(C)n(-c2nc(Cl)nc(Cl)n2)n1 | > 100 | 100 | 100 | > 100 |  |  |  |  |
| Cc1cc(C)n(-c2nc3ccccc3[nH]2)n1 | 100 (≈ 471 µM) | 0 |  | 25 (≈ 118 µM) |  |  |  |  |
| Cc1cc(C)n(-c2nc(C)c(C)s2)n1 | > 100 | 15 | 0 | > 100 |  |  |  |  |
| CCCCCc1c(C)nc(-n2nc(C)cc2C)nc1O | 6.25 (≈ 22.8 µM) | 94 | 81 | 0.2 (≈ 0.729 µM) | 100 | 100 | 100 | 100 |
| CCCCCCc1c(C)nc(-n2nc(C)cc2C)nc1O | 6.25 (≈ 21.7 µM) | 89 | 81 | 6.25 (≈ 21.7 µM) | 100 | 98.4 | 99.4 | 100 |
| Cc1nc(-n2nc(C)c(Br)c2C)nc(O)c1Br | 50 (≈ 138 µM) | 31 | 40 | 25 (≈ 69.1 µM) |  |  |  |  |
| Cc1cc(C)nc(-n2ccnc2)n1 | > 100 | 0 | 51 | > 100 |  |  |  |  |
| Cc1cc(C)nc(-n2ccnc2C)n1 | > 100 | 40 | 59 | > 100 |  |  |  |  |

| SMILES | MIC (Pyricularia oryzae [1]) [µg/mL] | Activity (Pyricularia oryzae [2]) [%] | Activity (Pyricularia oryzae [3]) [%] | MIC (Nakataea oryzae) [µg/mL] | Activity (Podosphaera fuliginea [4]) [%] | Activity (Podosphaera fuliginea [5]) [%] | Activity (Podosphaera fuliginea [6]) [%] | Activity (Podosphaera fuliginea [7]) [%] |
| --- | --- | --- | --- | --- | --- | --- | --- | --- |
| Cc1cc(C)nc(-n2cc(C)nc2C)n1 | > 100 | 0 | 59 | > 100 |  |  |  |  |
| Cc1cc(C)nc(-n2cncn2)n1 | > 100 | 0 | 31 | > 100 |  |  |  |  |
| Cc1cc(C)nc(-n2nc(C)nc2C)n1 | > 100 | 0 | 81 | > 100 |  |  |  |  |
| Cc1cc(C)n(-c2ccc3ccccc3n2)n1 | 100 (≈ 448 µM) | 60 | 31 | 25 (≈ 112 µM) |  |  |  |  |
| Cc1cc(C)n(-c2cc(C)c3ccccc3n2)n1 | > 100 | 69 | 81 | > 100 |  |  |  |  |
| Cc1cc(C)nc(-n2nc(C(F)(F)F)cc2C(F)(F)F)n1 | > 100 | 31 | 51 | > 100 |  |  |  |  |
| Cc1cc(C)nc(-n2nc(C(F)(F)F)cc2-c2ccccc2)n1 | 100 (≈ 314 µM) | 53 | 74 | > 100 |  |  |  |  |
| CCOC(=O)c1cc(C)nn1-c1nc(C)cc(C)n1 | > 100 | 0 | 0 | > 100 |  |  |  |  |
| CCOC(=O)c1c(C)nn(-c2nc(C)cc(C)n2)c1C | > 100 | 85 | 69 | > 100 |  |  |  |  |
| CC(=O)c1c(C)nn(-c2nc(C)cc(C)n2)c1C | > 100 | 84 | 40 | > 100 |  |  |  |  |
| Cc1cc(C)nc(-n2nc(C)c(Cl)c2C)n1 | 50 (≈ 211 µM) | 99 | 29 | 50 (≈ 211 µM) |  |  |  |  |
| Cc1cc(C)nc(-n2nc(C)c(Br)c2C)n1 | 50 (≈ 178 µM) | 96 | 65 | 50 (≈ 178 µM) |  |  |  |  |
| Cc1cc(C)n(-c2nc(C)c(Cl)c(C)n2)n1 | 50 (≈ 211 µM) | 100 | 94 | 25 (≈ 106 µM) |  |  |  |  |
| Cc1cc(C)nc(-n2ccc(C)n2)n1 | > 100 | 69 | 69 | > 100 |  |  |  |  |
| Cc1cc(C)nc(-n2cccn2)n1 | > 100 | 40 | 41 | > 100 |  |  |  |  |
| COc1cc(C)nn1-c1nc(C)cc(C)n1 | > 100 | 40 | 40 | > 100 |  |  |  |  |
